# Data published in US12606561B2, “Substituted pyrazolo[1,5-a][1,3,5]triazines as CDK inhibitors” (QURIENT CO., LTD., priority 2018, dated 2026).
# Read-outs that look alike come from different tables or passages of the source.
# Columns and labels:
# Experiment in all cases: In vitro IC50 profile for CDKs family kinase (33PanQinase Activity Assay, ProQinase)
# Format in all cases: biochemical
# [1] = target: T1, 28 CDKs family protein kinases (Homo sapiens, UniProt P06493); conditions: read-out: CDK7 selectivity profile in CDKs family, IC50
# T1 construct: purchased ProQinase GmbH; host or cells: Sf9 insect cells or E. coli
# Description: (§1) The IC50 profile of compound 11 was determined using 28 CDKs family protein kinases through ProQinase GmbH (Freiburg, Germany). All the protocol and materials had been provided by ProQinase GmbH. Briefly, in the process, 90 μl H2O were added to each well of a compound dilution plate. To minimize potential precipitation, the H2O was added to the plate only a few minutes before the transfer of the compound solutions into the assay plates. The plate was shaken thoroughly, resulting in a “compound dilution plate/10% DMSO”. The compound dilution plate(s) were discarded at the end of the working day. For the assays (see below), 5 μl solution from each well of the compound dilution plate were transferred into the assay plates. The final volume of the assay was 50 μl. All compounds were tested at 10 final assay concentrations in the range from 1×10^−05 M to 3×10^−10 M. The final DMSO concentration in the reaction cocktails was 1% in all cases. All protein kinases provided by ProQinase were expressed in Sf9 insect cells or in E. coli as recombinant GST-fusion proteins or His-tagged proteins, either as full-length or enzymatically active fragments. All kinases were produced from human cDNAs and purified by either GSH affinity chromatography or immobilized metal affinity chromatography. The purity of the protein kinases was examined by SDS-PAGE/Coomassie staining, the identity was checked by mass spectroscopy. Kinases from external vendors, Carna Biosciences Inc.; Invitrogen Corp.; and Millipore Corp., were expressed, purified and quality-controlled by virtue of the vendors readings. A radiometric protein kinase assay (33PanQinase® Activity Assay) was used for measuring the kinase activity of the 28 protein kinases. All kinase assays were performed in 96-well FlashPlates™ from PerkinElmer (Boston, MA, USA) in a 50 μl reaction volume. The reaction cocktails were incubated at 30° C. for 60 minutes. The reaction was stopped with 50 μl of 2% (v/v) H3PO4, plates were aspirated and washed two times with 200 μl 0.9% (w/v) NaCl. Incorporation of ^33Pi was determined with a microplate scintillation counter (Microbeta, Wallac). All assays were performed with a BeckmanCoulter/SAGIAN™ Core System. As part of the data evaluation the low control value from a particular plate was subtracted from the high control value as well as from all 80 “compound values” of the corresponding plate. The residual activity (in %) for each well of a particular plate was calculated by using the following formula: Res. Activity (%)=100×[(cpm of compound−low control)/(high control−low control)].
# [2] = target: T2, 28 CDKs family protein kinases (Homo sapiens, UniProt P11802); conditions: read-out: CDK7 selectivity profile in CDKs family, IC50
# T2 construct: purchased ProQinase GmbH; host or cells: Sf9 insect cells or E. coli
# Description: as §1
# [3] = target: T3, 28 CDKs family protein kinases (Homo sapiens, UniProt P24941); conditions: read-out: CDK7 selectivity profile in CDKs family, IC50
# T3 construct: purchased ProQinase GmbH; host or cells: Sf9 insect cells or E. coli
# Description: as §1
# [4] = target: T4, 28 CDKs family protein kinases (Homo sapiens, UniProt P49336); conditions: CDK8/CycC; read-out: CDK7 selectivity profile in CDKs family, IC50
# T4 construct: purchased ProQinase GmbH; host or cells: Sf9 insect cells or E. coli
# T4 sequence (P49336 whole entry): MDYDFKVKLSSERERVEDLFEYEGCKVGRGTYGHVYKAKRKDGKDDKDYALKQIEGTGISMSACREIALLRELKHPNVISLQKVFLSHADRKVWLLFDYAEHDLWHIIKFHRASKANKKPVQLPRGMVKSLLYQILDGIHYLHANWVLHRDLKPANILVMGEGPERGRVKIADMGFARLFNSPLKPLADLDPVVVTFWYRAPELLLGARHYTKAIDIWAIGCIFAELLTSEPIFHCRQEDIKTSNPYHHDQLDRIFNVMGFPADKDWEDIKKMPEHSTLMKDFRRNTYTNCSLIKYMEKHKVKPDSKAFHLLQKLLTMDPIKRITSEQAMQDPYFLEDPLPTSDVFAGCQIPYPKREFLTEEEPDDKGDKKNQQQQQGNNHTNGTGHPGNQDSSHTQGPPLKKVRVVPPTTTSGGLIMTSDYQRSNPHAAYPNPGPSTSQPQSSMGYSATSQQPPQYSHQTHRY
# T4 sequence (P24863 whole entry partner): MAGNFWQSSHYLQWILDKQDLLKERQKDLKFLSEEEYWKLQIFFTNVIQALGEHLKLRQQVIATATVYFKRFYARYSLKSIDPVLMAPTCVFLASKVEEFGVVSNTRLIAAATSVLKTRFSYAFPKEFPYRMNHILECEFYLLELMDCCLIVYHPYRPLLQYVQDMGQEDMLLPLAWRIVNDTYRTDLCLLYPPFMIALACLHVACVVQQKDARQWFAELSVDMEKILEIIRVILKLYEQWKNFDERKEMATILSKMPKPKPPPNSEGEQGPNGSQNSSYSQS
# Description: as §1
# [5] = target: T5, 28 CDKs family protein kinases (Homo sapiens, UniProt P50613); conditions: CDK7/CycH/MAT1; read-out: CDK7 selectivity profile in CDKs family, IC50
# T5 construct: purchased ProQinase GmbH; host or cells: Sf9 insect cells or E. coli
# Description: as §1
# [6] = target: T6, 28 CDKs family protein kinases (Homo sapiens, UniProt P50750); conditions: read-out: CDK7 selectivity profile in CDKs family, IC50
# T6 construct: purchased ProQinase GmbH; host or cells: Sf9 insect cells or E. coli
# Description: as §1
# [7] = target: T7, 28 CDKs family protein kinases (Homo sapiens, UniProt Q00526); conditions: read-out: CDK7 selectivity profile in CDKs family, IC50
# T7 construct: purchased ProQinase GmbH; host or cells: Sf9 insect cells or E. coli
# T7 sequence (Q00526 whole entry): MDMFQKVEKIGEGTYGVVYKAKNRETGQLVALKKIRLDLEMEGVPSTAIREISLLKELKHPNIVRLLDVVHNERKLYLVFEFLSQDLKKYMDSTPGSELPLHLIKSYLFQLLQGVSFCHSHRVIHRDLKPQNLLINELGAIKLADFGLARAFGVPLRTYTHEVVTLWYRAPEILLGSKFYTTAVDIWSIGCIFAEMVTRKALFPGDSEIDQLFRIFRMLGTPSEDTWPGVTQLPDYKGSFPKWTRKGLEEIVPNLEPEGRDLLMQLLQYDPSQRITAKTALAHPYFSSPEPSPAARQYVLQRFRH
# T7 sequence (P24863 whole entry partner): as the sequence (P24863 whole entry partner) above
# Description: as §1
# [8] = target: T8, 28 CDKs family protein kinases (Homo sapiens, UniProt Q00534); conditions: read-out: CDK7 selectivity profile in CDKs family, IC50
# T8 construct: purchased ProQinase GmbH; host or cells: Sf9 insect cells or E. coli
# Description: as §1
# [9] = target: T9, 28 CDKs family protein kinases (Homo sapiens, UniProt Q00536); conditions: CDK16/CycY; read-out: CDK7 selectivity profile in CDKs family, IC50
# T9 construct: purchased ProQinase GmbH; host or cells: Sf9 insect cells or E. coli
# Description: as §1
# [10] = target: T10, 28 CDKs family protein kinases (Homo sapiens, UniProt Q00537); conditions: CDK17/p35NCK; read-out: CDK7 selectivity profile in CDKs family, IC50
# T10 construct: purchased ProQinase GmbH; host or cells: Sf9 insect cells or E. coli
# Description: as §1
# [11] = target: T11, 28 CDKs family protein kinases (Homo sapiens, UniProt Q14004)
# T11 construct: purchased ProQinase GmbH; host or cells: Sf9 insect cells or E. coli
# T11 sequence (Q14004 whole entry): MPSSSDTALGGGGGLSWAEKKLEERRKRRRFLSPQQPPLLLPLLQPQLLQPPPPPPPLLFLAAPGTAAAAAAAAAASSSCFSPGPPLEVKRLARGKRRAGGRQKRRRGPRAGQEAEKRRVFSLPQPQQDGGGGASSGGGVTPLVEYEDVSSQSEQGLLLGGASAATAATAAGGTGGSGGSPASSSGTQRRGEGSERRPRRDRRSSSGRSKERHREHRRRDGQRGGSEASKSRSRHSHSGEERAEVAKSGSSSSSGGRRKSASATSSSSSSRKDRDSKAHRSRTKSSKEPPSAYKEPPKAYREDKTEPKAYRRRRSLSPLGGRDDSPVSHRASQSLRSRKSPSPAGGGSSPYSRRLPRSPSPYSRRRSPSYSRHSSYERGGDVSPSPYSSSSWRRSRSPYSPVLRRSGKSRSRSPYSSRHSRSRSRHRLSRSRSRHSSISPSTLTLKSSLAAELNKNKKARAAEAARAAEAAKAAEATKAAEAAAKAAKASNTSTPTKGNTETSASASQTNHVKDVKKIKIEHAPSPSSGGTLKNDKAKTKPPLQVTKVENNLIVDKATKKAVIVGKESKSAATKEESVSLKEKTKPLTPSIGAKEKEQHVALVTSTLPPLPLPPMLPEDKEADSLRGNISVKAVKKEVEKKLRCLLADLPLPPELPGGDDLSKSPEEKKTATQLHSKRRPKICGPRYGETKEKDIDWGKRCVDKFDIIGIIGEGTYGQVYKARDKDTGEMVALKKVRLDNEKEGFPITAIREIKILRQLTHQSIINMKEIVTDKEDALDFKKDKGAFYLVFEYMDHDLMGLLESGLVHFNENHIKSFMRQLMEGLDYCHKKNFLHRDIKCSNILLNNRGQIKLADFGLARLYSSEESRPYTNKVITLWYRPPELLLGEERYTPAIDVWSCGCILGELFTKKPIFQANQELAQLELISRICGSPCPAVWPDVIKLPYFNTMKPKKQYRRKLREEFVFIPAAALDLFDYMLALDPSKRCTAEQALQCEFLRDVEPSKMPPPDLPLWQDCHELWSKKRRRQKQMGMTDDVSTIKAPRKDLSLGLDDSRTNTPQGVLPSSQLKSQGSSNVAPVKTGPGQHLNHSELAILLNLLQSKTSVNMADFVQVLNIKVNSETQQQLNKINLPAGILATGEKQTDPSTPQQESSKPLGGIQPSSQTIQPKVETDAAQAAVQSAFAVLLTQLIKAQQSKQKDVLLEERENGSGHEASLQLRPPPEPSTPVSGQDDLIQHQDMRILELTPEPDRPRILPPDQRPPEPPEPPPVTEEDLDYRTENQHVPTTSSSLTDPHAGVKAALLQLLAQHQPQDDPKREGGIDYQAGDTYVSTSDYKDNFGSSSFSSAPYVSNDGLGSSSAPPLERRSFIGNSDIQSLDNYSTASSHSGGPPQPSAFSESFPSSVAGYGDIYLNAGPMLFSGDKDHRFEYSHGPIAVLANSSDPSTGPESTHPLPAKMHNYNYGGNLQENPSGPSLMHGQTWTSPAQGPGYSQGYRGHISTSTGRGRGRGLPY
# T11 sequence (O75909 whole entry partner): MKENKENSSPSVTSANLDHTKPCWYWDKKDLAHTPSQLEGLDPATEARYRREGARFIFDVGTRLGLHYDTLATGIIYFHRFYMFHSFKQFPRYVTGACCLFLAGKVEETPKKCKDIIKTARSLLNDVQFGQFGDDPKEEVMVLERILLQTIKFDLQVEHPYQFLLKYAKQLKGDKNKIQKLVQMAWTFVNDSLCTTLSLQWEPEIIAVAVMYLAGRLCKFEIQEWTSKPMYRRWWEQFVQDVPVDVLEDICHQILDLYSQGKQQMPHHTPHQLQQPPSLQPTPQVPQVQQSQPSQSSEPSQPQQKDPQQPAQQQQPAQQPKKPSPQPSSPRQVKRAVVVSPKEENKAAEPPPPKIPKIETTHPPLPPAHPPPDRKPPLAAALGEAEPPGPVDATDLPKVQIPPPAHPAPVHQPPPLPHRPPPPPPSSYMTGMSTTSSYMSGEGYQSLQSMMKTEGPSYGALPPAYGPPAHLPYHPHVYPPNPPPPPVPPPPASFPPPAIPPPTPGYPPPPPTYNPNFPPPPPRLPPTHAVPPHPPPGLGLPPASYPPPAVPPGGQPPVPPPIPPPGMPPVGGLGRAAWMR
# Description: as §1
# [12] = target: T12, 28 CDKs family protein kinases (Homo sapiens, UniProt Q9BWU1); conditions: CDK19/CycC; read-out: CDK7 selectivity profile in CDKs family, IC50
# T12 construct: purchased ProQinase GmbH; host or cells: Sf9 insect cells or E. coli
# Description: as §1
# [13] = target: T13, 28 CDKs family protein kinases (Homo sapiens, UniProt Q9NYV4); conditions: CDK12wt/CycK; read-out: CDK7 selectivity profile in CDKs family, IC50
# T13 construct: purchased ProQinase GmbH; host or cells: Sf9 insect cells or E. coli
# T13 sequence (Q9NYV4 whole entry): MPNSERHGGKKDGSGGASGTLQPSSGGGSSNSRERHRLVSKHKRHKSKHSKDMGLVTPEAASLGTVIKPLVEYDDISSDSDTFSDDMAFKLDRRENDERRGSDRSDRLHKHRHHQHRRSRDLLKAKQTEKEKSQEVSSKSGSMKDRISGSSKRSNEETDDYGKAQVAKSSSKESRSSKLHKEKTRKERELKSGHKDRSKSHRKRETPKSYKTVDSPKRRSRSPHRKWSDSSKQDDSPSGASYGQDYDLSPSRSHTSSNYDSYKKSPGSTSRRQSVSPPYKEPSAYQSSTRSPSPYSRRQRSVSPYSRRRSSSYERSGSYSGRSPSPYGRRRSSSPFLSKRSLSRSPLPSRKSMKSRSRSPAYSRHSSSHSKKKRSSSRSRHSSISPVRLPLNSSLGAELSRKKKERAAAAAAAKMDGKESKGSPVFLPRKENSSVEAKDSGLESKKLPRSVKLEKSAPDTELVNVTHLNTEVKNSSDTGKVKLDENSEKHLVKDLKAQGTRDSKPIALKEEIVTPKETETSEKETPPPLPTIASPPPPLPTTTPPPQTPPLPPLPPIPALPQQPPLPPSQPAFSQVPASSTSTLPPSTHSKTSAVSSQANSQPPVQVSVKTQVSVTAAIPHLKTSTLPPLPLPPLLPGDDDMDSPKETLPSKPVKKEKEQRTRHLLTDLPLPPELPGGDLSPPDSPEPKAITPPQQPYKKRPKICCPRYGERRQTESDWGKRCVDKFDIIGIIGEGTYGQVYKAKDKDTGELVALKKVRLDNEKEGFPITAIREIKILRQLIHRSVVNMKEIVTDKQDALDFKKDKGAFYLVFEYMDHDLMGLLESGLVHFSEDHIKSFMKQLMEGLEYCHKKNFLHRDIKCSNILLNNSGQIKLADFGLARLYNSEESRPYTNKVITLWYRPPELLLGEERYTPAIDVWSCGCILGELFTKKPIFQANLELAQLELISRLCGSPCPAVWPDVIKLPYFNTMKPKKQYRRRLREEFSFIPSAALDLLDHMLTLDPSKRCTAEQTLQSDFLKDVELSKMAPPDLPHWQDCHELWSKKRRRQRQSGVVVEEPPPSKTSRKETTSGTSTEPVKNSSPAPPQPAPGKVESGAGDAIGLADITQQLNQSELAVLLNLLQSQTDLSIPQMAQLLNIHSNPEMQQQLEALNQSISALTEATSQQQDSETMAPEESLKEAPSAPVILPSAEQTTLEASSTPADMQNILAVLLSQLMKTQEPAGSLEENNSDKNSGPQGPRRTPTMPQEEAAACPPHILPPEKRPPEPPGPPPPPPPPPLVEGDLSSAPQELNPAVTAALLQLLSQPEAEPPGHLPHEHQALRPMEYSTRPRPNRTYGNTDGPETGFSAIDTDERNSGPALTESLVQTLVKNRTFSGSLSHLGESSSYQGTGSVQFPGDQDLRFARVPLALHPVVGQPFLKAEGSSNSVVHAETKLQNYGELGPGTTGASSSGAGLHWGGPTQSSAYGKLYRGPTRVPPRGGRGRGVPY
# T13 sequence (O75909 whole entry partner): as the sequence (O75909 whole entry partner) above
# Description: as §1
structure (smiles),measurement,setting,value
CC(C)c1cnn2c(NCc3ccccc3-c3nccc4cc(NC(=O)/C=C/CN(C)C)ccc34)nc(N3CCC(N)CC3)nc12 [Compound 11],IC50,[1]; CDK1/CycA2,> 10 µM
same,IC50,[1]; CDK1/CycB1,> 10 µM
same,IC50,[1]; CDK1/CycE1,> 10 µM
same,IC50,[2]; CDK4/CycD1,> 10 µM
same,IC50,[2]; CDK4/CycD2,> 10 µM
same,IC50,[2]; CDK4/CycD3,> 10 µM
same,IC50,[3]; CDK2/CycA2,> 10 µM
same,IC50,[3]; CDK2/CycD1,> 10 µM
same,IC50,[3]; CDK2/CycE1,> 10 µM
same,IC50,[4],> 10 µM
same,IC50,[5],0.025 µM
same,IC50,[6]; CDK9/CycK,> 10 µM
same,IC50,[6]; CDK9/CycT1,> 10 µM
same,IC50,[7]; CDK3/CycC,> 10 µM
same,IC50,[7]; CDK3/CycE1,> 10 µM
same,IC50,[8]; CDK6/CycD1,> 10 µM
same,IC50,[8]; CDK6/CycD2,> 10 µM
same,IC50,[8]; CDK6/CycD3,> 10 µM
same,IC50,[9],> 10 µM
same,IC50,[10],> 10 µM
same,IC50,[11],> 10 µM
same,IC50,[12],> 10 µM
same,IC50,[13],> 10 µM
